Laboratory results from patent US12043600B2, “Microbiocidal compounds” (SYNGENTA CROP PROTECTION AG, priority 2018, dated 2024).

Columns and labels:
[1] = tested on: Plasmopara viticola; experiment: whole plant or invertebrate; assay type: in vivo; details: foliar, read-out: control of Plasmopara viticola
[2] = tested on: Puccinia recondita f. sp. tritici; experiment: Puccinia recondita f. sp. tritici/Wheat/Leaf Disc Curative (Brown Rust); assay type: in vivo; details: foliar, wheat leaf disc curative, compared to untreated control
Description: Wheat leaf segments cv. Kanzler are placed on agar in multiwell plates (24-well format). The leaf segments are inoculated with a spore suspension of the fungus. Plates are stored in darkness at 19° C. and 75% rh. The formulated test compound diluted in water is applied 1 day after inoculation. The leaf segments are incubated at 19° C. and 75% rh under a light regime of 12 h light/12 h darkness in a climate cabinet and the activity of a compound is assessed as percent disease control compared to untreated when an appropriate level of disease damage appears in untreated check leaf segments (6-8 days after application).

[3] = tested on: Phakopsora pachyrhizi; experiment: Phakopsora pachyrhizi/Soybean/Preventative (Soybean Rust); assay type: in vivo; details: foliar, 288 h, 200 ppm, soybean leaf disc preventative, compared to untreated control, read-out: control of Phakopsora pachyrhizi
[4] = tested on: Monographella nivalis (Microdochium nivale); experiment: Monographella nivalis (Microdochium nivale)/Liquid Culture (Foot Rot Cereals); assay type: cell-based; details: liquid culture, compared to untreated control
Description: (§1) Conidia of the fungus from cryogenic storage are directly mixed into nutrient broth (PDB potato dextrose broth). After placing a (DMSO) solution of test compound into a microtiter plate (96-well format), the nutrient broth containing the fungal spores is added.

[5] = tested on: Mycosphaerella graminicola (Septoria tritici); experiment: Mycosphaerella graminicola (Septoria tritici)/Liquid Culture (Septoria Blotch); assay type: cell-based; details: Zymoseptoria tritici; 20 ppm; liquid culture; compared to untreated control
Description: Conidia of the fungus from cryogenic storage are directly mixed into nutrient broth (PDB potato dextrose broth). After placing a (DMSO) solution of test compound into a microtiter plate (96-well format), the nutrient broth containing the fungal spores is added. […] The data are presented as the percentage of disease control of each compound for the biological tests against G. lagenarium (Example B3), P. recondita preventative (Example B13), P. teres (Example B15) and M. graminicola (Example B19) as described above. The testing rates of each biological test is specifically described in table C1 below.

[6] = tested on: Glomerella lagenarium (Colletotrichum lagenarium); experiment: Glomerella lagenarium (Colletotrichum lagenarium)/Liquid Culture (Anthracnose); assay type: cell-based; details: Colletotrichum orbiculare, liquid culture, compared to untreated control
[7] = tested on: Puccinia recondita f. sp. tritici; experiment: Puccinia recondita f. sp. tritici/Wheat/Leaf Disc Preventative (Brown Rust); assay type: in vivo; details: foliar, 200 ppm, wheat leaf disc preventative, compared to untreated control, read-out: control of Puccinia recondita f. sp. tritici
[8] = tested on: Blumeria graminis f. sp. tritici (Erysiphe graminis f. sp. tritici); experiment: Blumeria graminis f. sp. tritici/Wheat/Leaf Disc Preventative (Powdery Mildew on Wheat); assay type: in vivo; details: foliar, wheat leaf disc preventative, compared to untreated control
Description: Wheat leaf segments cv. Kanzler are placed on agar in a multiwell plate (24-well format) and sprayed with the formulated test compound diluted in water. The leaf disks are inoculated by shaking powdery mildew infected plants above the test plates 1 day after application. The inoculated leaf disks are incubated at 20° C. and 60% rh under a light regime of 24 h darkness followed by 12 h light/12 h darkness in a climate chamber and the activity of a compound is assessed as percent disease control compared to untreated when an appropriate level of disease damage appears on untreated check leaf segments (6-8 days after application).

[9] = tested on: Mycosphaerella arachidis (Cercospora arachidicola); experiment: Mycosphaerella arachidis (Cercospora arachidicola)/Liquid Culture (Early Leaf Spot); assay type: cell-based; details: liquid culture, compared to untreated control
Description: as §1

[10] = tested on: Botryotinia fuckeliana (Botrytis cinerea); experiment: Botryotinia fuckeliana (Botrytis cinerea)/Liquid Culture (Gray Mould); assay type: cell-based; details: liquid culture, compared to untreated control
Description: Conidia of the fungus from cryogenic storage are directly mixed into nutrient broth (Vogels broth). After placing a (DMSO) solution of test compound into a microtiter plate (96-well format), the nutrient broth containing the fungal spores is added.

[11] = tested on: Phytophthora infestans; experiment: whole plant or invertebrate; assay type: in vivo; details: in Solanum lycopersicum, foliar, read-out: control of Phytophthora infestans
[12] = tested on: Magnaporthe grisea (Pyricularia oryzae); experiment: whole plant or invertebrate; assay type: in vivo; details: foliar, read-out: control of Magnaporthe grisea
[13] = tested on: Phaeosphaeria nodorum (Septoria nodorum); experiment: Phaeosphaeria nodorum (Septoria nodorum)/Wheat/Leaf Disc Preventative (Glume Blotch); assay type: in vivo; details: Parastagonospora nodorum, foliar, wheat leaf disc preventative, compared to untreated control
Description: Wheat leaf segments cv. Kanzler are placed on agar in a multiwell plate (24-well format) and sprayed with the formulated test compound diluted in water. The leaf disks are inoculated with a spore suspension of the fungus 2 days after application. The inoculated test leaf disks are incubated at 20° C. and 75% rh under a light regime of 12 h light/12 h darkness in a climate cabinet and the activity of a compound is assessed as percent disease control compared to untreated when an appropriate level of disease damage appears in untreated check leaf disks (5-7 days after application).

SMILES: CO/C=C(\Oc1cc(-n2ccc(COC)n2)ccc1C)C(=O)OC [Compound E-77, methyl (Z)-3-methoxy-2-[5-[3-(methoxymethyl)pyrazol-1-yl]-2-methyl-phenoxy]prop-2-enoate]
- pest or weed control at 200 ppm [1]: ≥ 80%
- pest or weed control at 200 ppm [2]: ≥ 80%
- pest or weed control at 200 ppm [3]: ≥ 50%
- inhibition of growth at 20 ppm [4]: ≥ 80%
- melting point: 107 to 110 °C
- inhibition of growth at 20 ppm [5]: ≥ 80%
- inhibition of growth at 20 ppm [6]: ≥ 80%
- pest or weed control at 200 ppm [7]: ≥ 80%
- pest or weed control at 200 ppm [8]: ≥ 80%
- inhibition of growth at 20 ppm [9]: ≥ 80%

SMILES: CO/C=C(\Oc1cc(-n2cc(C#N)cn2)ccc1C)C(=O)OC [Compound E-55, methyl (Z)-2-[5-(4-cyanopyrazol-1-yl)-2-methyl-phenoxy]-3-methoxy-prop-2-enoate]
- inhibition of growth at 20 ppm [10]: ≥ 80%
- inhibition of growth at 20 ppm [4]: ≥ 80%
- inhibition of growth at 20 ppm [5]: ≥ 80%
- pest or weed control at 200 ppm [7]: ≥ 80%
- inhibition of growth at 20 ppm [9]: ≥ 80%

SMILES: CO/C=C(\Oc1cc(-n2ccc(C3CCCCC3)n2)c(Cl)cc1C)C(=O)OC [Compound E-115, methyl (Z)-2-[4-chloro-5-(3-cyclohexylpyrazol-1-yl)-2-methyl-phenoxy]-3-methoxy-prop-2-enoate]
- pest or weed control at 200 ppm [2]: ≥ 80%
- inhibition of growth at 20 ppm [4]: ≥ 80%
- melting point: 127 to 129 °C
- inhibition of growth at 20 ppm [5]: ≥ 80%
- inhibition of growth at 20 ppm [6]: ≥ 80%
- pest or weed control at 200 ppm [7]: ≥ 80%
- pest or weed control at 200 ppm [8]: ≥ 80%
- inhibition of growth at 20 ppm [9]: ≥ 80%

SMILES: CO/C=C(\Oc1cc(-n2ccc(C3CCCCC3)n2)cc(C)c1C)C(=O)OC [Compound E-110, methyl (Z)-2-[5-(3-cyclohexylpyrazol-1-yl)-2,3-dimethyl-phenoxy]-3-methoxy-prop-2-enoate]
- pest or weed control at 200 ppm [1]: ≥ 80%
- pest or weed control at 200 ppm [2]: ≥ 80%
- pest or weed control at 200 ppm [11]: ≥ 80%
- inhibition of growth at 20 ppm [4]: ≥ 80%
- melting point: 90 to 93 °C
- pest or weed control at 200 ppm [12]: ≥ 80%
- inhibition of growth at 20 ppm [5]: ≥ 80%
- inhibition of growth at 20 ppm [6]: ≥ 80%
- pest or weed control at 200 ppm [7]: ≥ 80%
- inhibition of growth at 20 ppm [9]: ≥ 80%
- pest or weed control at 200 ppm [13]: ≥ 80%

SMILES: CO/C=C(\Oc1cc(-n2cc(Cl)c(C(C)C)n2)ccc1C)C(=O)OC [Compound E-11, methyl (Z)-2-[5-(4-chloro-3-isopropyl-pyrazol-1-yl)-2-methyl-phenoxy]-3-methoxy-prop-2-enoate]
- pest or weed control at 200 ppm [1]: ≥ 80%
- pest or weed control at 200 ppm [2]: ≥ 80%
- inhibition of growth at 20 ppm [4]: ≥ 80%
- melting point: 95 to 100 °C
- pest or weed control at 200 ppm [12]: ≥ 80%
- inhibition of growth at 20 ppm [5]: ≥ 80%
- pest or weed control at 200 ppm [7]: ≥ 80%
- inhibition of growth at 20 ppm [9]: ≥ 80%
- pest or weed control at 200 ppm [13]: ≥ 80%

SMILES: CO/C=C(\Oc1cc(-n2ccc(C)n2)c(Cl)cc1C)C(=O)OC [Compound E-28, methyl (Z)-2-[4-chloro-2-methyl-5-(3-methylpyrazol-1-yl)phenoxy]-3-methoxy-prop-2-enoate]
- pest or weed control at 200 ppm [1]: ≥ 80%
- pest or weed control at 200 ppm [2]: ≥ 80%
- inhibition of growth at 20 ppm [4]: ≥ 80%
- inhibition of growth at 20 ppm [5]: ≥ 80%
- inhibition of growth at 20 ppm [6]: ≥ 80%
- pest or weed control at 200 ppm [7]: ≥ 80%
- pest or weed control at 200 ppm [8]: ≥ 80%
- inhibition of growth at 20 ppm [9]: ≥ 80%

SMILES: CO/C=C(\Oc1cc(-n2ccc(C3CC3(F)F)n2)ccc1C)C(=O)OC (centres unmarked) [Compound E-26, methyl (Z)-2-[5-[3-(2,2-difluorocyclopropyl)pyrazol-1-yl]-2-methyl-phenoxy]-3-methoxy-prop-2-enoate]
- pest or weed control at 200 ppm [1]: ≥ 80%
- pest or weed control at 200 ppm [2]: ≥ 80%
- pest or weed control at 200 ppm [11]: ≥ 80%
- inhibition of growth at 20 ppm [4]: ≥ 80%
- pest or weed control at 200 ppm [12]: ≥ 80%
- inhibition of growth at 20 ppm [5]: ≥ 80%
- inhibition of growth at 20 ppm [6]: ≥ 80%
- pest or weed control at 200 ppm [7]: ≥ 80%
- pest or weed control at 200 ppm [8]: ≥ 80%
- inhibition of growth at 20 ppm [9]: ≥ 80%
- pest or weed control at 200 ppm [13]: ≥ 80%
